The record followed here is patent US11739100B2, “2,3-dihydro-1h-imidazo{1,2-a}pyrimidin-5-one and this 1,2,3,4-tetrahydropyrimido{1,2-a}pyrimidin-6-one derivatives comprising a substituted morpholine, preparation thereof and pharmaceutical use thereof” (SANOFI, priority 2012, dated 2023).

Some results are limits rather than exact numbers.

For this experiment, the target named is T1, recombinant Vps34 (Homo sapiens, UniProt Q8NEB9).
T1 construct: purchased Invitrogen PV5126
T1 sequence (Q8NEB9 whole entry): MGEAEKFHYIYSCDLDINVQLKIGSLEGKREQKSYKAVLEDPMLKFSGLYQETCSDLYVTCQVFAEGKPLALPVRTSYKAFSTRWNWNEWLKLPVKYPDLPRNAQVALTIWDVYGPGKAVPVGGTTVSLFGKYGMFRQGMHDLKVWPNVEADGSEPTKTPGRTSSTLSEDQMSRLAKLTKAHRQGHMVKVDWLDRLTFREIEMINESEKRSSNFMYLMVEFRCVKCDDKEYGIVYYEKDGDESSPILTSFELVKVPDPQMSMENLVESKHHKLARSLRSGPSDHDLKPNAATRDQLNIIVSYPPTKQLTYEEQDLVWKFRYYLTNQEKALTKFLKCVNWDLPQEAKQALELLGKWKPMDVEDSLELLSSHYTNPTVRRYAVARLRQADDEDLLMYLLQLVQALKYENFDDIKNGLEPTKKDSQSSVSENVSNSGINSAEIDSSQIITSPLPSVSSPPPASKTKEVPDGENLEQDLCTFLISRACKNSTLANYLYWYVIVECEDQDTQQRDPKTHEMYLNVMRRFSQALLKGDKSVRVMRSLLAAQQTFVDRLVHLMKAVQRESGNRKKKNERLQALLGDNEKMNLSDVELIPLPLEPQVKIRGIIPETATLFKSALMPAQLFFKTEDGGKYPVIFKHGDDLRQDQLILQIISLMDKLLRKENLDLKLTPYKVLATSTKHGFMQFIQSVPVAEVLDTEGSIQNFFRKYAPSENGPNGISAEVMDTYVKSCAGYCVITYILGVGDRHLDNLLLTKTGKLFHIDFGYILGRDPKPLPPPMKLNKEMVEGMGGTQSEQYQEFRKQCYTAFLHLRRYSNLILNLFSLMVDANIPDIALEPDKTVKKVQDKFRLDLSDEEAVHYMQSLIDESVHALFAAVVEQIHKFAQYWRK
Description: Phosphorylation of phosphatidylinositol (PI) by Vps34 in vitro, ADP detected by TR-FRET (HTRF Transcreener ADP). The format is biochemical. As to conditions: 10 μM ATP, 55 μg/ml PI, approximately 3 nM Vps34, 1 hour at ambient temperature; absolute IC50, mean of two independent experiments; read-out: IC50 activity range.
For orientation: IC50 means the point on the concentration scale where inhibition reaches its midpoint. Consider `C[C@@H]1COCCN1c1cc(=O)n2c(n1)N(Cc1cccnc1)[C@H](C(F)(F)F)CC2` [Example 217, (S)-2-((R)-3-Methyl-morpholin-4-yl)-9-pyridin-3-ylmethyl-8-trifluoromethyl-6,7,8,9-tetrahydro-pyrimido[1,2-a]-pyrimidin-4-one], for which the half-maximal inhibitory concentration (IC50) is less than 10 nM.
Then `C[C@@H]1COCCN1c1cc(=O)n2c(n1)N(Cc1ccccn1)[C@H](C(F)(F)F)CC2` [Example 218, (S)-2-((R)-3-Methyl-morpholin-4-yl)-9-pyridin-2-ylmethyl-8-trifluoromethyl-6,7,8,9-tetrahydro-pyrimido[1,2-a]-pyrimidin-4-one], with less than 10 nM; and `C[C@@H]1COCCN1c1cc(=O)n2c(n1)N(CCc1ccc(F)cc1)[C@H](C(F)(F)F)CC2` [Example 219, (S)-9-[2-(4-Fluoro-phenyl)ethyl]-2-((R)-3-methylmorpholin-4-yl)-8-trifluoromethyl-6,7,8,9-tetrahydro-pyrimido[1,2-a]-pyrimidin-4-one], with less than 10 nM.
In the case of `C[C@@H]1COCCN1c1cc(=O)n2c(n1)N(CCc1ccccn1)[C@H](C(F)(F)F)CC2` [Example 220, (S)-2-((R)-3-Methyl-morpholin-4-yl)-9-(2-pyridin-2-ylethyl)-8-trifluoromethyl-6,7,8,9-tetrahydro-pyrimido[1,2-a]-pyrimidin-4-one], the IC50 is less than 10 nM.
Then `C[C@@H]1COCCN1c1cc(=O)n2c(n1)N(Cc1cccnc1F)[C@H](C(F)(F)F)CC2` [Example 221, (S)-9-(2-Fluoropyridin-3-ylmethyl)-2-((R)-3-methylmorpholin-4-yl)-8-trifluoromethyl-6,7,8,9-tetrahydro-pyrimido[1,2-a]-pyrimidin-4-one], with less than 10 nM.
`C[C@@H]1COCCN1c1cc(=O)n2c(n1)N(CC(=O)N(C)C)[C@H](C(F)(F)F)CC2` [Example 222, N,N-Dimethyl-2-[(S)-8-((R)-3-methyl-morpholin-4-yl)-6-oxo-2-trifluoromethyl-3,4-dihydro-2H,6H-pyrimido[1,2-a]-pyrimidin-1-yl]-acetamide]: the IC50 lay within 10 to 100 nM.
For `CNC(=O)CN1c2nc(N3CCOC[C@H]3C)cc(=O)n2CC[C@H]1C(F)(F)F` [Example 223, N-Methyl-2-[(S)-8-((R)-3-methylmorpholin-4-yl)-6-oxo-2-trifluoromethyl-3,4-dihydro-2H,6H-pyrimido[1,2-a]-pyrimidin-1-yl]-acetamide], the IC50 was in the range of 10 to 100 nM.
With `C[C@@H]1COCCN1c1cc(=O)n2c(n1)N(Cc1cccc(F)n1)[C@H](C(F)(F)F)CC2` [Example 224, (S)-9-(6-Fluoropyridin-2-ylmethyl)-2-((R)-3-methylmorpholin-4-yl)-8-trifluoromethyl-6,7,8,9-tetrahydro-pyrimido[1,2-a]-pyrimidin-4-one], the IC50 is less than 10 nM.
For `CC(C)Oc1cc(CN2c3nc(N4CCOC[C@H]4C)cc(=O)n3CC[C@H]2C(F)(F)F)ccn1` [Example 225, (S)-9-(2-Isopropoxy-pyridin-4-ylmethyl)-2-((R)-3-methyl-morpholin-4-yl)-8-trifluoromethyl-6,7,8,9-tetrahydro-pyrimido[1,2-a]-pyrimidin-4-one] the value was less than 10 nM; for `CC(C)c1noc(CN2c3nc(N4CCOC[C@H]4C)cc(=O)n3CC[C@H]2C(F)(F)F)n1` [Example 226, (S)-9-(3-Isopropyl-[1,2,4]oxadiazol-5-yl-methyl)-2-((R)-3-methylmorpholin-4-yl)-8-trifluoromethyl-6,7,8,9-tetrahydro-pyrimido[1,2-a]-pyrimidin-4-one], less than 10 nM; for `C[C@@H]1COCCN1c1cc(=O)n2c(n1)N(Cc1nc(C3CC3)no1)[C@H](C(F)(F)F)CC2` [Example 227, (S)-9-(3-Cyclopropyl-[1,2,4]oxadiazol-5-yl-methyl)-2-((R)-3-methylmorpholin-4-yl)-8-trifluoromethyl-6,7,8,9-tetrahydro-pyrimido[1,2-a]-pyrimidin-4-one], less than 10 nM.
As to `C[C@@H]1COCCN1c1cc(=O)n2c(n1)N(Cc1nc(C(C)(C)C)no1)[C@H](C(F)(F)F)CC2` [Example 228, (S)-9-(3-tert-Butyl-[1,2,4]oxadiazol-5-yl-methyl)-2-((R)-3-methylmorpholin-4-yl)-8-trifluoromethyl-6,7,8,9-tetrahydro-pyrimido[1,2-a]-pyrimidin-4-one], the IC50 is less than 10 nM.
Then `CC(C)Oc1ccc(CN2c3nc(N4CCOC[C@H]4C)cc(=O)n3CC[C@H]2C(F)(F)F)cn1` [Example 229, (S)-9-(6-Isopropoxy-pyridin-3-ylmethyl)-2-((R)-3-methyl-morpholin-4-yl)-8-trifluoromethyl-6,7,8,9-tetrahydro-pyrimido[1,2-a]-pyrimidin-4-one], with less than 10 nM; and `CC(C)Oc1ncccc1CN1c2nc(N3CCOC[C@H]3C)cc(=O)n2CC[C@H]1C(F)(F)F` [Example 230, (S)-9-(2-Isopropoxy-pyridin-3-ylmethyl)-2-((R)-3-methyl-morpholin-4-yl)-8-trifluoromethyl-6,7,8,9-tetrahydro-pyrimido[1,2-a]-pyrimidin-4-one], with less than 10 nM; and `C[C@@H]1COCCN1c1cc(=O)n2c(n1)N(Cc1nccs1)[C@H](C(F)(F)F)CC2` [Example 231, (S)-2-((R)-3-Methyl-morpholin-4-yl)-9-thiazol-2-ylmethyl-8-trifluoromethyl-6,7,8,9-tetrahydro-pyrimido[1,2-a]-pyrimidin-4-one], with less than 10 nM.
Then `C[C@@H]1COCCN1c1nc2n(c(=O)c1F)CC[C@@H](C(F)(F)F)N2Cc1nccs1` [Example 232, (S)-3-Fluoro-2-((R)-3-methylmorpholin-4-yl)-9-thiazol-2-ylmethyl-8-trifluoromethyl-6,7,8,9-tetrahydro-pyrimido[1,2-a]-pyrimidin-4-one], with less than 10 nM.
Turning to `C[C@@H]1COCCN1c1cc(=O)n2c(n1)N(CC(=O)N1CCCCC1)[C@H](C(F)(F)F)CC2` [Example 233, (S)-2-((R)-3-Methyl-morpholin-4-yl)-9-(2-oxo-2-piperidin-1-yl-ethyl)-8-trifluoromethyl-6,7,8,9-tetrahydro-pyrimido[1,2-a]-pyrimidin-4-one], the IC50 is less than 10 nM.
For `C[C@@H]1COCCN1c1cc(=O)n2c(n1)N(CC(=O)N1CCOCC1)[C@H](C(F)(F)F)CC2` [Example 234, (S)-2-((R)-3-Methyl-morpholin-4-yl)-9-(2-morpholin-4-yl-2-oxo-ethyl)-8-trifluoromethyl-6,7,8,9-tetrahydro-pyrimido[1,2-a]-pyrimidin-4-one] the value was 10 to 100 nM; for `C[C@@H]1COCCN1c1nc2n(c(=O)c1F)CC[C@@H](C(F)(F)F)N2CC(=O)N1CCOCC1` [Example 235, (S)-3-Fluoro-2-((R)-3-methylmorpholin-4-yl)-9-(2-morpholin-4-yl-2-oxoethyl)-8-trifluoromethyl-6,7,8,9-tetrahydro-pyrimido[1,2-a]-pyrimidin-4-one], 10 to 100 nM; for `C[C@@H]1COCCN1c1cc(=O)n2c(n1)N(CC(=O)Nc1ccccc1)[C@H](C(F)(F)F)CC2` [Example 236, 2-[(S)-8-((R)-3-Methyl-morpholin-4-yl)-6-oxo-2-trifluoromethyl-3,4-dihydro-2H,6H-pyrimido[1,2-a]-pyrimidin-1-yl]-N-phenyl-acetamide], 10 to 100 nM.
Then `C[C@@H]1COCCN1c1nc2n(c(=O)c1F)CC[C@@H](C(F)(F)F)N2CC(=O)N1CCCCC1` [Example 237, (S)-3-Fluoro-2-((R)-3-methylmorpholin-4-yl)-9-(2-oxo-2-piperidin-1-ylethyl)-8-trifluoromethyl-6,7,8,9-tetrahydro-pyrimido[1,2-a]-pyrimidin-4-one], with less than 10 nM; and `CC(=O)N1c2nc(N3CCOC[C@H]3C)cc(=O)n2CC[C@H]1C(F)(F)F` [Example 238, (S)-9-Acetyl-2-((R)-3-methylmorpholin-4-yl)-8-trifluoromethyl-6,7,8,9-tetrahydro-pyrimido[1,2-a]-pyrimidin-4-one], with greater than 100 nM; and `C[C@@H]1COCCN1c1cc(=O)n2c(n1)N(Cc1ncco1)[C@](C)(C(F)(F)F)CC2` [Example 239, (S)-8-Methyl-2-((R)-3-methylmorpholin-4-yl)-9-oxazol-2-ylmethyl-8-trifluoromethyl-6,7,8,9-tetrahydro-pyrimido[1,2-a]-pyrimidin-4-one], with less than 10 nM.
As for `Cc1nc(CN2c3nc(N4CCOC[C@H]4C)cc(=O)n3C[C@@]2(C)C(F)(F)F)no1` [Example 240, (S)-2-Methyl-7-((R)-3-methylmorpholin-4-yl)-1-(5-methyl-[1,2,4]oxadiazol-3-yl-methyl)-2-trifluoromethyl-2,3-dihydro-1H-imidazo[1,2-a]-pyrimidin-5-one], the IC50 was less than 10 nM.
For `C[C@@H]1COCCN1c1cc(=O)n2c(n1)N(CC(=O)C1CC1)[C@H](C(F)(F)F)CC2` [Example 241, (S)-9-(2-Cyclopropyl-2-oxoethyl)-2-((R)-3-methylmorpholin-4-yl)-8-trifluoromethyl-6,7,8,9-tetrahydro-pyrimido[1,2-a]-pyrimidin-4-one] the value was less than 10 nM.
On to `C[C@@H]1COCCN1c1cc(=O)n2c(n1)N(CC(=O)c1nccs1)[C@H](C(F)(F)F)CC2` [Example 242, (S)-2-((R)-3-Methyl-morpholin-4-yl)-9-(2-oxo-2-thiazol-2-yl-ethyl)-8-trifluoromethyl-6,7,8,9-tetrahydro-pyrimido[1,2-a]-pyrimidin-4-one], for which the 50% inhibitory concentration (IC50) is less than 10 nM.
For `C[C@@H]1COCCN1c1cc(=O)n2c(n1)N(CC(=O)OC1CCCC1)[C@H](C(F)(F)F)CC2` [Example 243, [(S)-8-((R)-3-Methyl-morpholin-4-yl)-6-oxo-2-trifluoromethyl-3,4-dihydro-2H,6H-pyrimido[1,2-a]-pyrimidin-1-yl]acetic acid cyclopentyl ester], the IC50 was less than 10 nM.
In the case of `C[C@@H]1COCCN1c1cc(=O)n2c(n1)N(CC(=O)C1CCCC1)[C@H](C(F)(F)F)CC2` [Example 244, (S)-9-(2-Cyclopentyl-2-oxoethyl)-2-((R)-3-methylmorpholin-4-yl)-8-trifluoromethyl-6,7,8,9-tetrahydro-pyrimido[1,2-a]-pyrimidin-4-one], the IC50 is less than 10 nM.
